From patent publication US20210023232A1, “COMBINATION OF POLYETHYLENE GLYCOL AND RAPAMYCIN AND USE THEREOF” (JENKEM TECHNOLOGY CO., LTD. (TIANJIN), priority 2018, published 2021)

System: KLH antibody
Assay: Influence on keyhole limpet hemoeyanin (KLH) antibody level in immunized mice, serum ELISA potency assay
Format: in vivo, mouse
Settings: for KLH antibody ELISA OD value, data obtained after the third immunization (1: 1K) / KLH antibody ELISA OD value, data obtained after the fourth immunization (1: 1K) / KLH antibody ELISA OD value, data obtained after the third immunization (1: 3K) / KLH antibody ELISA OD value, data obtained after the fourth immunization (1: 3K): Balb/c mice immunized with KLH, test substance given on day 0 and day 7, x ± sd; for KLH antibody ELISA OD value, data obtained after the third immunization (1: 1K) / KLH antibody ELISA OD value, data obtained after the fourth immunization (1: 1K): serum dilution 1:1K; for KLH antibody ELISA OD value, data obtained after the third immunization (1: 1K) / KLH antibody ELISA OD value, data obtained after the third immunization (1: 3K): tail blood day 28-29; for KLH antibody ELISA OD value, data obtained after the fourth immunization (1: 1K) / KLH antibody ELISA OD value, data obtained after the fourth immunization (1: 3K): tail blood day 40-41; for KLH antibody ELISA OD value, data obtained after the third immunization (1: 3K) / KLH antibody ELISA OD value, data obtained after the fourth immunization (1: 3K): serum dilution 1:3K
Description: 2.4.1. Antigenic Information: Immunogen: KLH; Tested Substance: KLH
Primary immunization: On the first day, 100 ug antigen (immunogen) and Freund's complete adjuvant in the same volume were formed into a water-in-oil compound by means of mutual injection with a syringe, and then the compound was given to each of 18 mice by subcutaneous multi-point injection.
Second immunization: On the 14th day, 100 ug antigen (immunogen) and Freund's incomplete adjuvant in the same volume were formed into a water-in-oil compound by means of mutual injection with a syringe, and then the compound was given to each of 18 mice by subcutaneous multi-point injection.
Third immunization: On the 24th day, 100 ug antigen (immunogen) and Freund's incomplete adjuvant in the same volume were formed into a water-in-oil compound by means of mutual injection with a syringe, and then the compound was given to each of 18 mice by subcutaneous multi-point injection.
Test of tail blood: On the 28th-29th day, about 20 ul tail blood was collected from the tail vein, followed by 30 min RT and 5 min 5000 rpm centrifugation; then haemocyte precipitate was removed; and serum was taken for Elisa potency assay.
Fourth immunization: On the 34th day, 100 ug antigen (immunogen) and Freund's incomplete adjuvant in the same volume were formed into a water-in-oil compound by means of mutual injection with a syringe, and then the compound was given to each of 18 mice by subcutaneous multi-point injection.
Group G2 (Group IV): immunization was performed with reference to group G1; moreover, […] JK1208R (prepared in Example 1) was given by intravenous injection on the 0th day and 7th day, respectively.
Group G2 (Group IV): immunization was performed with reference to group G1; moreover, 52 μg rapamycin was given by oral administration on the 0th day and 7th day, respectively.
Test of tail blood: On the 40th-41st day, about 20 ul tail blood was collected from the tail vein, followed by 30 min RT and 5 min 5000 rpm centrifugation; then haemocyte precipitate was removed; and serum was taken for ELISA potency assay.
Coating: 10 ug antigen (tested substance) and 10 ml coating buffer (1.6 g […]+2.92 g NaHCO3+100 ml deionized water) were mixed; the solution was applied to the Elisa microplate, 100 ul per pore; the microplate was incubated for 2 h at 37° C. or kept still overnight at 4° C.
Blocking: The antigen coating buffer was sucked and removed from the coated microplate; a blocking buffer (5% dried skimmed milk and coating buffer) was directly added, 150 ul per pore; the microplate was treated for 2 h at 37° C., followed by three times of washing with de-ionized water; then the microplate was provisionally stored at 4° C.
Assay: serum and 1×PBS was mixed at a ratio of 1:1000; 150 ul diluent was added into the first pore; 100 ul 1×PBS were respectively added into each of the 2nd-8th pores; 50 ul liquid was transferred from the first pore into the second pore, followed by suction blow for 10 times; then, 50 ul liquid was transferred into the third pore, followed by suction blow for 10 times; next, 50 ul liquid was transferred into the fourth pore, followed by suction blow for 10 times; the test was done in the similar way in turn until the 7th pore, 50 ul liquid was removed from the 7th pore; the […] pore was a negative control group; the microplate was incubated for 1 h at 37° C., followed by three times of washing with de-ionized water; then a second antibody (goat-anti-mouse IgG-HRP 1:10000 1×PBS) was added, 100 ul each pore; the microplate was incubated for 30 min at 37° C., followed by three times of washing with de-ionized water; a chromogenic solution was added (according to the instructions on the reagent box), 100 ul each pore; the microplate was incubated for 10 min at 37° C. and then ended (2M sulphuric acid, 30 ul per pore). The OD value was tested with the microplate reader.

Compound	KLH antibody ELISA OD value, data obtained after the third immunization (1: 1K)	KLH antibody ELISA OD value, data obtained after the fourth immunization (1: 1K)	KLH antibody ELISA OD value, data obtained after the third immunization (1: 3K)	KLH antibody ELISA OD value, data obtained after the fourth immunization (1: 3K)	Effect on generation of the KLH antibody (after the fourth immunization)	Statistical difference from immune model group after the fourth immunization (at 1:1K and 1:3K)	Statistical difference from immune model group after the third immunization (at 1:3K)
CO[C@H]1C[C@@H]2CC[C@@H](C)[C@@](O)(O2)C(=O)C(=O)N2CCCC[C@H]2C(=O)O[C@H]([C@H](C)C[C@@H]2CC[C@@H](O)[C@H](OC)C2)CC(=O)[C@H](C)/C=C(\C)[C@@H](O)[C@@H](OC)C(=O)[C@H](C)C[C@H](C)/C=C/C=C/C=C/1C [rapamycin]	1.77 ± 0.33	2.56 ± 0.11	1.49 ± 0.38	2.40 ± 0.24			
monomethoxy polyethylene glycol-glutamic dipeptide-rapamycin [JK1208R]	1.33 ± 0.24	1.85 ± 0.32	0.86 ± 0.20	1.54 ± 0.31	could remarkably resist the generation of the KLH antibody	show remarkably difference	show remarkably difference
